Laboratory results from PubChem BioAssay (NCI).
Where “and” joins values, the source holds several entries; their conditions need not be identical. Identical values can stand only once.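 In this assay, cells in 96-well plates receive the compound at five concentrations for 48 hours. Endpoints are linearly interpolated between the surrounding concentrations. The concentration for 50% growth inhibition is given as GI50. TGI marks complete inhibition of growth.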

Tests used:
Test in all cases: growth of human tumour cells (NCI), 48 h
UACC-62 melanoma = system: UACC-62 melanoma
OVCAR-3 ovarian = system: OVCAR-3 ovarian
NCI-H23 lung = system: NCI-H23 lung
MOLT-4 leukemia = system: MOLT-4 leukemia
SK-MEL-28 melanoma = system: SK-MEL-28 melanoma
SNB-75 CNS = system: SNB-75 CNS
IGROV1 ovarian = system: IGROV1 ovarian
K-562 leukemia = system: K-562 leukemia
RXF 393 renal = system: RXF 393 renal
HCT-15 colon = system: HCT-15 colon

Row | Structure (SMILES) | GI50 (UACC-62 melanoma) | TGI (UACC-62 melanoma) | GI50 (OVCAR-3 ovarian) | TGI (OVCAR-3 ovarian) | GI50 (NCI-H23 lung) | TGI (NCI-H23 lung) | GI50 (MOLT-4 leukemia) | TGI (MOLT-4 leukemia) | GI50 (SK-MEL-28 melanoma) | TGI (SK-MEL-28 melanoma) | GI50 (SNB-75 CNS) | TGI (SNB-75 CNS) | GI50 (IGROV1 ovarian) | TGI (IGROV1 ovarian) | GI50 (K-562 leukemia) | TGI (K-562 leukemia) | GI50 (RXF 393 renal) | TGI (RXF 393 renal) | GI50 (HCT-15 colon) | TGI (HCT-15 colon)
1 | CCOC(=O)c1[nH]c2cc(Cl)ccc2c1[C@@H](C(=O)NC(C)(C)C)N(CC)C(=O)CCCCC#Cc1cccc2c1CN(C1CCC(=O)NC1=O)C2=O (stereo not given in full) | 1560 nM | 5.51 µM | 1.58 µM | > 38.9 µM | 3.93 µM | 21.2 µM | < 10 nM | 0.0152 µM | 2290 nM | 25.5 µM | < 10 nM | 4.81 µM | < 0.0109 µM | 11.1 µM | 1520 nM | > 100 µM | 113 nM | 3.91 µM | 48 nM | > 33.2 µM
2 | CC(C)(C)C(=O)N1C(C(=O)O)Cc2ccccc2[C@@H]1Cc1ccccc1 (stereo not given in full) | – | > 100 µM | – | > 100 µM | – | > 100 µM | – | > 100 µM | – | > 100 µM | – | > 100 µM | – | > 100 µM | – | > 100 µM | – | > 100 µM | – | > 100 µM
3 | COc1cc2nc(Nc3cccc(Cl)c3)nc(N)c2cc1OC | 13000 nM | 25.7 µM | 4.12 µM | 12.6 µM | 14.2 µM | 33.2 µM | 2780 nM | 11.4 µM | 1930 nM | 3.78 µM | 17400 nM | 32.3 µM | 11 µM | 25.4 µM | 3670 nM | > 36.1 µM | 16900 nM | 31.3 µM | 2620 nM | 10.4 µM
4 | COc1ccc(Br)cc1NC(=O)Nc1cccc2c1ccn2Cc1ccnc(N)c1 | 6170 nM and 5940 nM | 21.7 µM and > 10 µM | 8.98 µM and > 10 µM | 23.6 µM and > 10 µM | 14.5 µM and > 10 µM | 40.7 µM and > 10 µM | 3060 nM and 3140 nM | 18.9 µM and > 10 µM | 11500 nM and > 10000 nM | 24.8 µM and > 10 µM | 2190 nM and 5100 nM | 42.8 µM and > 10 µM | 7.64 µM and 3.95 µM | 44.2 µM and > 10 µM | 2410 nM and 2750 nM | 8.38 µM and > 10 µM | 4600 nM and 9230 nM | 16.1 µM and > 10 µM | 2440 nM and 2940 nM | 6.31 µM and > 10 µM
5 | Cn1ncc(Cl)c1-c1cc(C(=O)N[C@H](CN)Cc2cccc(F)c2)sc1Cl | 1070 nM and 1460 nM | > 5.59 µM and 11.6 µM | 1.18 µM and 2.8 µM | > 10 µM and 15.4 µM | 2.45 µM and 8.12 µM | > 8.23 µM and 22 µM | 196 nM and 123 nM | 3.13 µM and 3.51 µM | 1430 nM and 1700 nM | 4.85 µM and 9.04 µM | 139 nM and 131 nM | 1.48 µM and 2.56 µM | 0.0387 µM and 0.0478 µM | 2.65 µM and 4.18 µM | 1330 nM and 2240 nM | 5.16 µM and 6.74 µM | 128 nM and 145 nM | 1.72 µM and 0.896 µM | 1440 nM and 2590 nM | > 10 µM and 16.2 µM
6 | CCOC(=O)C1(C(=O)OCC)C(C(C)(C)C)=C(C)c2ccccc21 | – | 26 µM | – | 24.9 µM | – | 30.4 µM | – | > 100 µM | – | 26.2 µM | – | 61.8 µM | – | 36 µM | – | 53.5 µM | – | 26.6 µM | – | 28.7 µM
7 | COc1ccccc1C#Cc1ccccc1C#Cc1ccc(OCCCCCCOc2ccccc2C#Cc2ccccc2C#Cc2ccccc2OC)cc1 | > 100000 nM | > 100 µM | > 100 µM | > 100 µM | > 100 µM | > 100 µM | > 100000 nM | > 100 µM | > 100000 nM | > 100 µM | > 100000 nM | > 100 µM | > 100 µM | > 100 µM | > 100000 nM | > 100 µM | > 100000 nM | > 100 µM | > 100000 nM | > 100 µM
8 | COc1cc2nc(N3CCCN(C)CC3)nc(NC3CCN(Cc4ccccc4)CC3)c2cc1OC | 1890 nM | 3.56 µM | 3.17 µM | 9.41 µM | 5.71 µM | 19.7 µM | 1800 nM | 6.25 µM | 1880 nM | 3.77 µM | 1400 nM | 4.55 µM | 7.33 µM | 25.3 µM | 1470 nM | 4.56 µM | 1330 nM | 3.12 µM | 1830 nM | 4.41 µM
9 | CN(C)CCNc1ccc2ncn3c4ccc(O)cc4c(=O)c1c23 | – | 15.9 µM | – | 13.4 µM | – | 10.9 µM | – | 10.5 µM | – | 18 µM | – | 10.2 µM | – | 8.87 µM | – | 29 µM | – | 2.58 µM | – | 10.2 µM
10 | CSc1cc([C@@H]2C[C@H]2c2ccc(Cl)cc2)on1 | 11300 nM | 24.7 µM | 15.4 µM | 33.4 µM | 3.98 µM | 18.1 µM | 28600 nM | > 100 µM | 24500 nM | 96.7 µM | 21300 nM | 49.5 µM | 14.8 µM | > 100 µM | 35100 nM | > 100 µM | 2140 nM | 12.6 µM | 10800 nM | 36.9 µM
11 | Cc1ccc2c(C(C[N+](=O)[O-])c3ccccc3)c(-c3ccccc3)[nH]c2c1 (stereo not given) | 14100 nM | > 95 µM | 16.3 µM | > 95 µM | 47 µM | > 95 µM | 34000 nM | > 95 µM | > 95000 nM | > 95 µM | 2870 nM | 43.6 µM | 13.4 µM | > 95 µM | 7140 nM | > 95 µM | 10500 nM | 81.3 µM | 20700 nM | > 95 µM
12 | COC[C@H](NC(=O)c1cnc(C)s1)C(=O)N[C@@H](COC)C(=O)N[C@@H](Cc1ccccc1)C(=O)[C@@]1(C)CO1 | 15800 nM | 39 µM | 27.5 µM | > 86.3 µM | 36.6 µM | > 100 µM | 23800 nM | > 100 µM | 27500 nM | > 95.1 µM | 22300 nM | > 100 µM | 38.8 µM | > 100 µM | 37800 nM | > 100 µM | 15500 nM | 33.9 µM | 31200 nM | > 100 µM
13 | Fc1cccc(COc2ccc(Nc3ncnc4onc(-c5ccccc5)c34)cc2)c1 | 496 nM | > 64.4 µM | 0.252 µM | 2.19 µM | 0.583 µM | > 100 µM | 270 nM | > 100 µM | 16400 nM | > 100 µM | < 16.2 nM | 0.155 µM | 0.249 µM | > 100 µM | 101 nM | > 100 µM | 219 nM | 1.35 µM | 2430 nM | > 100 µM
14 | Cc1c(CN2CCN(C(=O)[C@H](C)O)CC2)sc2c(N3CCOCC3)nc(-c3cnc(N)nc3)nc12 | 100 nM and 110 nM | 0.917 µM and 0.467 µM | 0.202 µM and 0.182 µM | 5.4 µM and 2.18 µM | 0.389 µM and 0.181 µM | > 100 µM | 175 nM and 139 nM | > 10 µM and 12.7 µM | 247 nM and 138 nM | 5.43 µM and 0.708 µM | 31.7 nM and 23.5 nM | 0.67 µM and 0.255 µM | 0.0161 µM and 0.0511 µM | 0.265 µM and 0.377 µM | 1500 nM and 2390 nM | > 100 µM | 60.3 nM and 119 nM | 0.443 µM and 0.543 µM | 258 nM and 248 nM | > 100 µM
15 | CC(=O)OC12C(C)=C(C)C(=O)N1c1ccccc1N2C(C)=O (stereo not given) | – | > 100 µM | – | > 100 µM | – | > 100 µM | – | > 100 µM | – | > 100 µM | – | > 100 µM | – | > 100 µM | – | > 100 µM | – | > 100 µM | – | > 100 µM
